Experimental data reported in paper PMC12518996 (Frontiers in Pharmacology, 2025).

Legend:
Type in all cases: in vitro ADME
MAOA = target: T1, MAOA (Homo sapiens, UniProt P21397); experiment: Metabolite formation by recombinant human MAOA; settings: trazodone 4 μM; 37 °C, 40 min
T1 sequence (P21397 1-527): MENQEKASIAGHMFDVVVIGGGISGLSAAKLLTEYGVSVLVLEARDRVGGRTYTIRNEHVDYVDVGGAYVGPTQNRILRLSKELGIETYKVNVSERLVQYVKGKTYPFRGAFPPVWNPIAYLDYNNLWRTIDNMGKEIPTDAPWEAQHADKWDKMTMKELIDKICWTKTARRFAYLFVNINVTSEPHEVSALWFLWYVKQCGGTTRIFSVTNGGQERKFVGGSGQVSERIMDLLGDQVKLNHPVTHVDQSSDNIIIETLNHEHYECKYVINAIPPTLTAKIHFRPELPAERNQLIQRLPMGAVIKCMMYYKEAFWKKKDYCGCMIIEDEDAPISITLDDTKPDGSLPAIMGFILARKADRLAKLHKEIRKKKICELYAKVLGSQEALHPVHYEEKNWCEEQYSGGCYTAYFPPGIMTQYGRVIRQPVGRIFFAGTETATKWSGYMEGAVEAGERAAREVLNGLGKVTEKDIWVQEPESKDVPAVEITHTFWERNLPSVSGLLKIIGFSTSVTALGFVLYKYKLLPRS

FMO1 = target: T2, FMO1 (Homo sapiens, UniProt Q01740); experiment: Metabolite formation by recombinant human FMO1; settings: trazodone 4 μM; 37 °C, 40 min
T2 sequence (Q01740 1-532): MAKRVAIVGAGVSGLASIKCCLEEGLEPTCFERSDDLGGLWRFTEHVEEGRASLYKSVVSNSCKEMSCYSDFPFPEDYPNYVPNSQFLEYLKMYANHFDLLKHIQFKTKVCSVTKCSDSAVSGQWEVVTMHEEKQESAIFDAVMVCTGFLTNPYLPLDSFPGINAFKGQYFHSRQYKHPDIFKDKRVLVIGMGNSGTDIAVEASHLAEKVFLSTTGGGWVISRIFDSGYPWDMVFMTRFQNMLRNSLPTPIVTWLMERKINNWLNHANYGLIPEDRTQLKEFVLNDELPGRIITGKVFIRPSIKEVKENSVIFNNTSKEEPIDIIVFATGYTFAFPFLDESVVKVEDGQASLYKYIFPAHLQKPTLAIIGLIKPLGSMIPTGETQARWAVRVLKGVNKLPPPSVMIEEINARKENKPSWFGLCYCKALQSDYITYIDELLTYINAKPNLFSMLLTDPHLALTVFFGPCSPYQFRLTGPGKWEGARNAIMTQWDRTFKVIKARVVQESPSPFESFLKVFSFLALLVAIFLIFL

FMO3 = target: T3, FMO3 (Homo sapiens, UniProt P31513); experiment: Metabolite formation by recombinant human FMO3; settings: trazodone 4 μM; 37 °C, 40 min
T3 sequence (P31513 1-532): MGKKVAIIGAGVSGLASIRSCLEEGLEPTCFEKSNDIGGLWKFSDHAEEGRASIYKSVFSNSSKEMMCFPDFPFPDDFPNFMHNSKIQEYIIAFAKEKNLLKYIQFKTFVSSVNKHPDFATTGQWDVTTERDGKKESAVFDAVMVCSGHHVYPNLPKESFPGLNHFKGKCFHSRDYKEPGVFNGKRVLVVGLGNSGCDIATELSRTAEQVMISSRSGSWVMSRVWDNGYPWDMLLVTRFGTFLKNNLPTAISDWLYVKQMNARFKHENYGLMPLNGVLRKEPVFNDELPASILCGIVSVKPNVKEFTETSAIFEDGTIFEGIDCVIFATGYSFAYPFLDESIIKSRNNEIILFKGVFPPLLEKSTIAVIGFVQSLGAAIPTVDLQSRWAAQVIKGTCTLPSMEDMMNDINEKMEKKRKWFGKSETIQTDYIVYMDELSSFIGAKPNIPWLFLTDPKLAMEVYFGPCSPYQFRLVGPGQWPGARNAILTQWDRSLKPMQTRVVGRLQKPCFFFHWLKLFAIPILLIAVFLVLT

CYP2A6 = target: T4, CYP2A6 (Homo sapiens, UniProt P11509); experiment: Metabolite formation by recombinant human CYP2A6; settings: trazodone 4 μM; NADPH; 37 °C, 40 min
T4 sequence (P11509 1-494): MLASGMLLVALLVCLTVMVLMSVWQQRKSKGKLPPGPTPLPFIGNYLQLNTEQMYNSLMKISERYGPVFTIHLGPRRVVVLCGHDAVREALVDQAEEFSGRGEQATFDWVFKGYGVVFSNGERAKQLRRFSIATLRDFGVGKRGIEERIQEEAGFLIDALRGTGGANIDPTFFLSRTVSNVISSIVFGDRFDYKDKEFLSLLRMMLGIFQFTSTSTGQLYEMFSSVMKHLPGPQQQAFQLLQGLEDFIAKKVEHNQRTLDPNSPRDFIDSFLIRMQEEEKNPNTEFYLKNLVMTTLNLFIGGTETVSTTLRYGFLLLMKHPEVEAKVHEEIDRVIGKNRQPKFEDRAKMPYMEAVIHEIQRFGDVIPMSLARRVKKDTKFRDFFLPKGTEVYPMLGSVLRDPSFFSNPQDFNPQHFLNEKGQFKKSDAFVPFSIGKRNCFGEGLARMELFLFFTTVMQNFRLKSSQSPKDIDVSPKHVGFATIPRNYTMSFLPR
Description: (§1) To confirm the role of individual CYP isoforms in metabolizing trazodone, recombinant human and rat CYP enzymes were employed in separate incubations. […] Each reaction was terminated with acetonitrile, centrifuged, and the supernatant was analyzed by identical UHPLC-Orbitrap setup outlined in §2.2, allowing direct comparison of metabolite spectra across all in-vitro systems. […] This procedure helped confirm the contributions of individual isoforms to specific biotransformation reactions.

CYP2D6 = CYP2D6 (Homo sapiens, UniProt P10635); experiment: Metabolite formation by recombinant human CYP2D6; settings: trazodone 4 μM; NADPH; 37 °C, 40 min
Chain of CYP2D6 (P10635 whole entry): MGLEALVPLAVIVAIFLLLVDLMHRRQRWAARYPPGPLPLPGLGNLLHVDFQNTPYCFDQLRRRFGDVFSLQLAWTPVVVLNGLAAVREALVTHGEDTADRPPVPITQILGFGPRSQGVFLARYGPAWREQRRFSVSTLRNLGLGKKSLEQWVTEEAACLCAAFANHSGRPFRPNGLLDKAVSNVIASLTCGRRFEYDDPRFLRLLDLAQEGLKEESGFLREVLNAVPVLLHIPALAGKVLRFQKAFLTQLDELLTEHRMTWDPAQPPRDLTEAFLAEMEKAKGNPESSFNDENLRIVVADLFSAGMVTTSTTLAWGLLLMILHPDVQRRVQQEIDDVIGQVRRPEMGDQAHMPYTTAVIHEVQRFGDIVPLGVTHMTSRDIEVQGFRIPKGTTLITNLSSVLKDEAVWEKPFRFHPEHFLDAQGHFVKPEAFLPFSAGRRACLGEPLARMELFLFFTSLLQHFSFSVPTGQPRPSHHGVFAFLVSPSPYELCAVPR
Description: as §1

CYP1B1 = target: T5, CYP1B1 (Rattus norvegicus, UniProt Q64678); experiment: Metabolite formation by recombinant rat CYP1B1; settings: trazodone 4 μM; NADPH; 37 °C, 40 min
T5 sequence (Q64678 1-543): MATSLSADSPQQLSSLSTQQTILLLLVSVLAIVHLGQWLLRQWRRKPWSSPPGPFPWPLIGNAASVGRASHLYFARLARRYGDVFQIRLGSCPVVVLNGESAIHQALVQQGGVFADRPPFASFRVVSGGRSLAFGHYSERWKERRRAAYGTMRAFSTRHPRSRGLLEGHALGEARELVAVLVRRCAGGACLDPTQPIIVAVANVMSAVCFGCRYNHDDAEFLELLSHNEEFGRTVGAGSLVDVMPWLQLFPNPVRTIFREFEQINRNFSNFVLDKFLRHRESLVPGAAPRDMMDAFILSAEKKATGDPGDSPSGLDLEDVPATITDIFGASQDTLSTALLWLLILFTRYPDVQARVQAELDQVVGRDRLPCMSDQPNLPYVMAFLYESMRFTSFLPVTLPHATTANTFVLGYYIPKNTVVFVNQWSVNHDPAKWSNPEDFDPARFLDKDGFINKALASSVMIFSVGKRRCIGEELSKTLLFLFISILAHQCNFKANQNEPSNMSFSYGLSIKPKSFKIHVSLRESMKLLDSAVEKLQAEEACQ
Description: as §1

Row | SMILES | Formation of trazodone phase I metabolite by recombinant human MAOA (as LC/MS peak areas) (MAOA) | Formation of trazodone phase I metabolite by recombinant human FMO1 (as LC/MS peak areas) (FMO1) | Formation of trazodone phase I metabolite by recombinant human FMO3 (as LC/MS peak areas) (FMO3) | Formation of trazodone phase I metabolite by recombinant human CYP2A6 (as LC/MS peak areas) (CYP2A6) | Formation of trazodone phase I metabolite by recombinant human CYP2D6 (as LC/MS peak areas) (CYP2D6) | Formation of trazodone phase I metabolite by recombinant rat CYP1B1 (as LC/MS peak areas) (CYP1B1)
1 | O=c1n(CCCN2CCNCC2)nc2ccccn12 [Metabolite M15] | 0 | 0 | 0 | 0 | 0 | 22
2 | Clc1cccc(N2CCNCC2)c1 [mCPP, m-chlorophenylpiperazine] | 28 | 6 | 4 | 8 | 0 | 724
3 | O=c1n(CCCO)nc2ccccn12 [Metabolite M20] | 0 | 0 | 0 | 0 | 0 | 94
